# Source: patent US20150374784A1, “COMPOSITIONS AND METHODS FOR REDUCING GERM CELL DEATH” (Los Angeles Biomedical Research Institute at Harbor-UCLA …, priority 2014, published 2015)
# Legend:
# SH-SY5Y (neuroblastoma) = experiment: Autophagy induction in SH-SY5Y; format: cell-based
# Text: The increased level of LC3-II, a marker of autophagosome was examined by Western blot and immunocytochemistry. The increase of autophagosomes and autolysosomes in HEK293 cells stably expressing mRFP-GFP-LC3, a dual-tag reporter of autophagy, was examined following humanin treatment. In addition, the signaling pathways activated by humanin using a phospho-antibody array in SH-SY5Y cells was investigated. […] Both activation and suppression of autophagy are involved in cancer pathogenesis and treatment, depending on the context.
# Ki-67 antigen = experiment: Immunohistochemistry of lung metastases: Ki-67; format: in vivo, mouse; details: CP 200 mg/kg single IP, HNG 5 mg/kg daily IP 14 days
# Procedure: Methods: Adult male mouse (n=5/group) were seeded with mouse B16 melanoma cells (100,000 cells/mouse) via tail vein on day 1. One week after melanoma cell inoculation, mice were treated either with a single intraperitoneal injection (IP) of CP (200 mg/kg), or daily IP injections of HNG (5 mg/kg), or both for 14 days. Mice were sacrificed at day 21 and lungs were fixed in formaldehyde. Immunohistochemistry was performed on lung metastases with antibodies against phosphorylated-AMPK (p-AMPK), p-4E-BP1 (downstream effector of mTOR) and Ki-67 antigen (a marker of cell proliferation).
Compound,autophagy (SH-SY5Y (neuroblastoma)),mean Ki-67 index (Ki-67 antigen)
"MAPRGFSCLLLLTSEIDLPVKRRA [HN, 24-amino acid mitochondrial derived peptide]",induces autophagy,–
"O=P1(N(CCCl)CCCl)NCCCO1 (centres unmarked) [CP, cyclophosphamide monohydrate]",–,30.0±16.2
